From ChEMBL document CHEMBL1671859, “bla(IMP-4) in different genetic contexts in Enterobacteriaceae isolates from Australia” (2008)

Legend:
Assay type in all cases: functional
Serratia marcescens [1] = assay: Antibacterial activity against Serratia marcescens isolate Sm211 harboring IncA/C plasmid and blaIMP-4-qacG2-aacA4-catB3 array by Etest method
Klebsiella pneumoniae [2] = assay: Antibacterial activity against Klebsiella pneumoniae isolate Kp4614
Morganella morganii [3] = assay: Antibacterial activity against Morganella morganii isolate Mm1614 harboring IncL/M plasmid and blaIMP-4-qacG2-aacA4-catB3 array by Etest method
Klebsiella pneumoniae [4] = assay: Antibacterial activity against Klebsiella pneumoniae Kp204 transconjugant harboring IncA/C plasmid and blaIMP-4-qacG2-aacA4-catB3 array by Etest method
Serratia marcescens [5] = assay: Antibacterial activity against Serratia marcescens isolate Sm201 harboring IncA/C plasmid and blaIMP-4-qacG2-aacA4-catB3 array by Etest method
Klebsiella pneumoniae [6] = assay: Antibacterial activity against Klebsiella pneumoniae Kp38045 transconjugant harboring IncL/M plasmid and blaIMP-4-qacG2-aacA4-catB3 array by Etest method
Klebsiella pneumoniae [7] = assay: Antibacterial activity against Klebsiella pneumoniae isolate Kp1945 harboring IncL/M plasmid and blaIMP-4-qacG2-aacA4-catB3 and dfrA12-orfF-aadA2 arrays by Etest method
Klebsiella pneumoniae [8] = assay: Antibacterial activity against Klebsiella pneumoniae Kp3799 transconjugant harboring IncL/M plasmid and blaIMP-4-qacG2-aacA4-catB3 array by Etest method
Morganella morganii [9] = assay: Antibacterial activity against Morganella morganii isolate Mm38009 harboring IncL/M plasmid and blaIMP-4-qacG2-aacA4-catB3 array by Etest method
Enterobacter cloacae [10] = assay: Antibacterial activity against Enterobacter cloacae isolate El3799 harboring IncL/M plasmid and blaIMP-4-qacG2-aacA4-catB3 array by Etest method
Klebsiella pneumoniae [11] = assay: Antibacterial activity against Klebsiella pneumoniae isolate Kp149 harboring IncA/C plasmid and blaIMP-4-qacG2-aacA4-catB3 array by Etest method
Citrobacter amalonaticus = assay: Antibacterial activity against Citrobacter amalonaticus isolate Ca38009 harboring IncL/M plasmid and blaIMP-4-qacG2-aacA4-catB3 array by Etest method
Escherichia coli [12] = assay: Antibacterial activity against Escherichia coli Ec9381 transconjugant harboring IncL/M plasmid and blaIMP-4-qacG2-aacA4-catB3 array by Etest method
Escherichia coli [13] = assay: Antibacterial activity against Escherichia coli isolate Ec221 harboring IncA/C plasmid and blaIMP-4-qacG2-aacA4-catB3 array by Etest method
Citrobacter koseri [14] = assay: Antibacterial activity against Citrobacter koseri isolate Ck211 harboring IncA/C plasmid and blaIMP-4-qacG2-aacA4-catB3 array by Etest method
Enterobacter cloacae [15] = assay: Antibacterial activity against Enterobacter cloacae isolate El1573 harboring IncL/M plasmid and blaIMP-4-qacG2-aacA4-catB3 array by Etest method
Klebsiella pneumoniae [16] = assay: Antibacterial activity against Klebsiella pneumoniae isolate Kp38045 harboring IncL/M plasmid and blaIMP-4-qacG2-aacA4-catB3 array by Etest method
Klebsiella oxytoca [17] = assay: Antibacterial activity against Klebsiella oxytoca Ko0426 transconjugant harboring IncL/M plasmid and blaIMP-4-qacG2-aacA4-catB3 array by Etest method
Enterobacter cloacae [18] = assay: Antibacterial activity against Enterobacter cloacae El1573 transconjugant harboring IncL/M plasmid and blaIMP-4-qacG2-aacA4-catB3 array by Etest method
Serratia marcescens [19] = assay: Antibacterial activity against Serratia marcescens Sm2723 transconjugant harboring IncL/M plasmid and blaIMP-4-qacG2-aacA4-catB3 array by Etest method
Klebsiella pneumoniae [20] = assay: Antibacterial activity against Klebsiella pneumoniae isolate Kp211 harboring IncA/C plasmid and blaIMP-4-qacG2-aacA4-catB3 array by Etest method
Klebsiella oxytoca [21] = assay: Antibacterial activity against Klebsiella oxytoca isolate Ko1156 harboring IncL/M plasmid and blaIMP-4-qacG2-aacA4-catB3 array by Etest method
Serratia marcescens [22] = assay: Antibacterial activity against Serratia marcescens isolate Sm203 harboring IncA/C plasmid and blaIMP-4-qacG2-aacA4-catB3 array by Etest method
Klebsiella pneumoniae [23] = assay: Antibacterial activity against Klebsiella pneumoniae isolate Kp2730 harboring IncL/M plasmid and blaIMP-4-qacG2-aacA4-catB3 and dfrA12-orfF-aadA2 arrays by Etest method
Klebsiella pneumoniae [24] = assay: Antibacterial activity against Klebsiella pneumoniae isolate Kp266 harboring IncA/C plasmid and blaIMP-4-qacG2-aacA4-catB3 array by Etest method
Klebsiella pneumoniae [25] = assay: Antibacterial activity against Klebsiella pneumoniae Kp38009 transconjugant harboring IncL/M plasmid and blaIMP-4-qacG2-aacA4-catB3 array by Etest method
Morganella morganii [26] = assay: Antibacterial activity against Morganella morganii Mm1229 transconjugant harboring IncL/M plasmid and blaIMP-4-qacG2-aacA4-catB3 array by Etest method
Klebsiella oxytoca [27] = assay: Antibacterial activity against Klebsiella oxytoca Ko238 transconjugant harboring IncA/C plasmid and blaIMP-4-qacG2-aacA4-catB3 array by Etest method
Acinetobacter baumannii = assay: Antibacterial activity against Acinetobacter baumannii isolate AbN450 harboring […]-qacG2-aacA4-catB3 array by Etest method
Enterobacter cloacae [28] = assay: Antibacterial activity against Enterobacter cloacae isolate El216 harboring IncA/C plasmid and blaIMP-4-qacG2-aacA4-catB3 array by Etest method
Escherichia coli [29] = assay: Antibacterial activity against Escherichia coli Ec158 transconjugant harboring IncA/C plasmid and blaIMP-4-qacG2-aacA4-catB3 array by Etest method
Klebsiella pneumoniae [30] = assay: Antibacterial activity against Klebsiella pneumoniae isolate Kp1239 harboring IncL/M plasmid and blaIMP-4-qacG2-aacA4-catB3 array by Etest method
Escherichia coli [31] = assay: Antibacterial activity against Escherichia coli isolate Ec9381 harboring IncL/M plasmid and blaIMP-4-qacG2-aacA4-catB3 array by Etest method
Klebsiella pneumoniae [32] = assay: Antibacterial activity against Klebsiella pneumoniae Kp1239 transconjugant harboring IncL/M plasmid and blaIMP-4-qacG2-aacA4-catB3 array by Etest method
Klebsiella oxytoca [33] = assay: Antibacterial activity against Klebsiella oxytoca Ko1156 transconjugant harboring IncL/M plasmid and blaIMP-4-qacG2-aacA4-catB3 array by Etest method
Enterobacter cloacae [34] = assay: Antibacterial activity against Enterobacter cloacae El3799 transconjugant harboring IncL/M plasmid and blaIMP-4-qacG2-aacA4-catB3 array by Etest method
Klebsiella pneumoniae [35] = assay: Antibacterial activity against Klebsiella pneumoniae isolate Kp204 harboring IncA/C plasmid and blaIMP-4-qacG2-aacA4-catB3 array by Etest method
Citrobacter youngae = assay: Antibacterial activity against Citrobacter youngae CyB38 transconjugant harboring blaIMP-4-qacG2-aacA4-catB3 array by Etest method
Citrobacter koseri [36] = assay: Antibacterial activity against Citrobacter koseri Ck211 transconjugant harboring IncA/C plasmid and blaIMP-4-qacG2-aacA4-catB3 array by Etest method
Klebsiella pneumoniae [37] = assay: Antibacterial activity against Klebsiella pneumoniae isolate Kp38009 harboring IncL/M plasmid and blaIMP-4-qacG2-aacA4-catB3 array by Etest method
Serratia marcescens [38] = assay: Antibacterial activity against Serratia marcescens Sm265 transconjugant harboring IncA/C plasmid and blaIMP-4-qacG2-aacA4-catB3 array by Etest method
Klebsiella pneumoniae [39] = assay: Antibacterial activity against Klebsiella pneumoniae Kp149 transconjugant harboring IncA/C plasmid and blaIMP-4-qacG2-aacA4-catB3 array by Etest method

Measured: MIC

GENTAMICIN
< 2 µg/mL: Klebsiella pneumoniae [4] | Escherichia coli [13] | Klebsiella oxytoca [27] | Klebsiella pneumoniae [35] | Citrobacter youngae | Serratia marcescens [38]
> 8 µg/mL: all other assays above

CO/N=C(\C(=O)N[C@@H]1C(=O)N2C(C(=O)O)=C(COC(C)=O)CS[C@H]12)c1csc(N)n1 [CEFOTAXIME]
16 µg/mL: Enterobacter cloacae [18] | Serratia marcescens [19] | Klebsiella oxytoca [33]
> 2 µg/mL: Citrobacter koseri [36]
32 µg/mL: Morganella morganii [3] | Klebsiella pneumoniae [6] | Klebsiella pneumoniae [8] | Morganella morganii [9] | Escherichia coli [12] | Klebsiella pneumoniae [16] | Klebsiella oxytoca [17] | Klebsiella oxytoca [21] | Klebsiella pneumoniae [25] | Morganella morganii [26] | Klebsiella oxytoca [27] | Klebsiella pneumoniae [32] | Enterobacter cloacae [34]
> 32 µg/mL: all other assays above

C[C@@H](O)[C@H]1C(=O)N2C(C(=O)O)=C(SCCNC=N)C[C@H]12 [IMIPENEM ANHYDROUS]
3 µg/mL: Morganella morganii [9]
0.5 µg/mL: Klebsiella pneumoniae [37]
0.75 µg/mL: Klebsiella pneumoniae [16] | Klebsiella oxytoca [21]
8 µg/mL: Morganella morganii [3] | Serratia marcescens [5] | Klebsiella pneumoniae [7] | Klebsiella pneumoniae [11] | Escherichia coli [13] | Enterobacter cloacae [15] | Klebsiella pneumoniae [23] | Klebsiella pneumoniae [24] | Klebsiella pneumoniae [35]
4 µg/mL: Serratia marcescens [1] | Klebsiella pneumoniae [4] | Klebsiella oxytoca [17] | Serratia marcescens [22] | Citrobacter youngae | Klebsiella pneumoniae [39]
1.5 µg/mL: Citrobacter amalonaticus | Escherichia coli [31]
1 µg/mL: Enterobacter cloacae [10]
> 32 µg/mL: Klebsiella pneumoniae [30]
≤ 1 µg/mL: Klebsiella pneumoniae [2] | Escherichia coli [12] | Citrobacter koseri [14] | Klebsiella pneumoniae [25] | Klebsiella oxytoca [33] | Enterobacter cloacae [34] | Citrobacter koseri [36]
> 8 µg/mL: Acinetobacter baumannii | Enterobacter cloacae [28]
2 µg/mL: all other assays above

NC[C@H]1O[C@H](O[C@H]2[C@H](O)[C@@H](O[C@H]3O[C@H](CO)[C@@H](O)[C@H](N)[C@H]3O)[C@H](N)C[C@@H]2N)[C@H](N)C[C@@H]1O [TOBRAMYCIN]
4 µg/mL: Morganella morganii [9]
> 8 µg/mL: Serratia marcescens [1] | Morganella morganii [3] | Serratia marcescens [5] | Klebsiella pneumoniae [7] | Enterobacter cloacae [10] | Klebsiella pneumoniae [11] | Citrobacter amalonaticus | Enterobacter cloacae [15] | Klebsiella oxytoca [21] | Serratia marcescens [22] | Klebsiella pneumoniae [23] | Klebsiella pneumoniae [24] | Acinetobacter baumannii | Enterobacter cloacae [28] | Escherichia coli [31]
8 µg/mL: all other assays above
